Measurements as given in patent publication US8729053B2, “Nuclear factor kappa B pathway inhibitor composition and use of same” (The United States of America, as represented by the …, priority 2008, dated 2014).
Where a name gives a salt, the structure may show the parent alone.

Columns and labels:
[1] = test system: SRE (Serum response element); assay: SRE luciferase reporter assay in HEK293 cells; type: cell-based; details: HEK293, TPA 10 ng/ml 18 hours
Method: All expression plasmids were transiently transfected into HEK293 cells in a 96-well plate (0.1 μg/well) by using Effectene transfection reagent (Qiagen, Valencia, Calif.) according to the manufacturer's manual. HEK293 cells were maintained in Dulbecco's modified Eagle medium (Sigma, St. Louis, Mo.) supplemented with 10% fetal bovine serum (Atlanta Biologicals, Lawrenceville, Ga.) and incubated at 37° C. in a 5% CO2 incubator. After 24 hrs incubation, the medium was changed to DMEM with 0.2% FBS, and the transfectants were exposed to various concentrations of compound I and TPA (10 ng/ml). Cells were lysed with passive lysis buffer and the luciferase assay was performed using the Firefly-Luciferase reporter assay system (Promega, Madison, Wis.) and MLX Luminometer (Dynex Technology, Chantilly, Va.).
Three different luciferase reporter genes, AP-1 reporter containing four times TRE consensus originated from GCN4 and SRE reporter purchased from Stratagene (La Jolla, Calif.) respectively are as described previously (Suzukawa et al., Environ. Health Perspect., 2002, 110, 865-70). NFκB reporter is driven by five times NFκB responsive element inserted into Cis-reporter backbone (Stratagene, La Jolla, Calif.). […]

NF-1 = assay: EMSA of NF-1 DNA binding, HEK293 nuclear fractions; type: cell-based; details: 17 μM
Method: EMSA was performed with the nuclear fraction of HEK293 cell using LightShift Chemiluminescent EMSA Kit (Pierce Biotechnology, Rockford, Ill.) according to the manufacture's instruction. Oligonucleotides for NFκB, NF-1, and AP-1 were labeled with biotin by Biotin 3′ End DNA labeling Kit (Pierce Biotechnology, Rockford, Ill.). The quantified 15 μg of nuclear extracts were incubated for 20 mins with 1 μg/μl Poly (dI.dC), biotin end-label target nucleotides in 20 μl binding buffer DNA-protein complexes were fractionated on 6% a polyacrylamide gel and transferred to a nylon membrane. The membranes were processed to detect biotin-label DNA by cross-linking, blocking, and detection incubations. Results were obtained by X-ray film exposure for 10 sec and development. The target sequences of oligonucleotides for NFκB, NF-1, and AP-1 are as follows;
To determine whether the effect of compound I on nuclear translocation of NFκB leads to inhibited binding of NFκB proteins to DNA, EMSA in HEK293 cells was performed. […] TPA-induced binding complex was attenuated by pretreatment with compound I in a dose-dependent manner (lanes 5-9). This binding inhibition parallels the inhibition of luciferase reporter transactivation and inhibition of nuclear translocation of NFκB proteins. […]

JB6 cells (clone 41) = assay: JB6 soft agar cell transformation assay; type: cell-based, mouse; details: for Transformation response to TPA: 10 days, TPA 10 ng/ml
Method: JB6 cells (clone 41) were used to assess the inhibitory activity of compound I using CytoSelect 96-well Cell Transformation Assay (Cell Biolabs, Huissen, Netherlands) as Soft Agar Assay according to manufacturer's instructions. Cells were incubated for 10 days in 0.4% agar medium over 0.6% agar containing TPA or TPA with compound I or DMSO as a control. To measure anchorage-independent growth, agar-layers were dissolved and lysed. 10 μl of the lysed solutions of each well were mixed with CyQuant and the fluorescence read by iQ5 with a FAM filter of 485/520 nm. As an alternative analysis, cell dose curves of JB6 cells were quantified by the End point using CyQuant to indicate relative anchorage-independent colony number.
In order to evaluate the potential therapeutic activity of the compound, tests for the biological activity of compound I were performed. The compound is non-toxic to MCF-7, T47D, and MDA-MB-231 breast cancer cells as estimated by XTT assay at 10 μM. To determine the effects of compound I on invasion by breast cancer cell lines, a matrigel invasion assay was used. The levels of phosphorylated IκBα were confirmed in TPA treated ER-positive (MCF-7 and T47D) and ER-negative (MDA-MB-231) breast cancer cell lines and compared the levels to those after pretreatment with compound I. Although induced levels of phosphorylated IκBα varied with the cell line, IκBα phosphorylation was eliminated by compound I treatment in all three breast cancer cell lines. Compound I also produced no effect on the estrogen receptor activity in the ER-positive breast cancer cells using ERE promoter luciferase reporter assay. Invasion capacity of breast cancer cells was increased by TPA stimulation compared to DMSO treated vehicle control. […] Following anchorage-independent colony induction in TPA-treated cells without or with compound I, colonies were lysed and measured with CyQuant GR Dye to detect DNA by fluorescence plate reader as a measure of colony count. Total transformed colony numbers were calculated from RFU and cell dose curve of JB6 cells. […]

Cc1cc(N)ccc1N=Nc1ccc(S(=O)(=O)CCOS(=O)(=O)O)cc1 [compound I, 2-(4-((4-amino-2-methylphenyl)diazenyl)phenylsulfonyl)ethyl hydrogen sulfate]
TPA-induced SRE luciferase activity [1]: repressed but to a lesser degree than AP-1
NF-1 DNA binding activity (NF-1): little or no effect
Tumor promoter induced transformation of JB6 cells (JB6 cells (clone 41)): inhibits
Transformation response to TPA (JB6 cells (clone 41); 1.1 μM): decreased
Transformation response to TPA (JB6 cells (clone 41); 17.0 μM to 2.1 μM): repressed to below vehicle control level
